We go through 14 molecules from ChEMBL document CHEMBL1212705, “Gene expression signatures and small-molecule compounds link a protein kinase to Plasmodium falciparum motility” (Nat Chem Biol, 2008).

The term IC50 denotes the concentration at which inhibition is half-maximal. As a reminder, the EC50 is the concentration giving half of the maximal effect.

A short description of test [1]: Inhibition of GST-fused Plasmodium falciparum recombinant CDPK1 expressed in Escherichia coli Rosetta 2 assessed as inhibition of [gamma-33P]ATP incorporation into substrate peptide by scintillation counting.
Test [2] deals with Plasmodium falciparum. The experiment in a line: Antiplasmodial activity against Plasmodium falciparum 3D7 after 72 hrs by SYBR green assay. The test is classed as functional, organism-based. Particulars: 3D7, 72 h.
Test [3] deals with Plasmodium falciparum. Put plainly: Antiplasmodial activity against Plasmodium falciparum 3D7 by [3H]hypoxanthine incorporation assay. As to conditions: 3D7, 3 h.

As for `N[C@H]1CC[C@H](Nc2nc(Nc3ccc(C(=O)N4CCCCC4)cc3)c3ncn(-c4cccc(OCc5ccccc5)c4)c3n2)CC1`, in test [1], the half-maximal inhibitory concentration (IC50) stood at 4040 nM. In the test with Plasmodium falciparum [2], this molecule displayed an EC50 of 312 nM.
For `N[C@H]1CC[C@H](Nc2nc(Nc3ccc(C(=O)N4CCCCC4)cc3)c3ncn(-c4ccc5c(c4)OCO5)c3n2)CC1` the same measures were 342 nM and 400 nM.
Turning to `N[C@H]1CC[C@H](Nc2nc(Nc3ccc(C(=O)N4CCCCC4)cc3)c3ncn(-c4cccc(C(=O)O)c4)c3n2)CC1`, the IC50 in test [1] turned out to be 71 nM. Besides, the EC50 in the test with Plasmodium falciparum [2] was > 10000 nM.
For `N[C@H]1CC[C@H](Nc2nc(Nc3ccc(C(=O)N4CCCCC4)cc3)c3ncn(-c4ccc(C(=O)O)cc4)c3n2)CC1` the same measures were 28 nM and > 10000 nM.
For `CCOc1ccc(-n2cnc3c(Nc4ccc(C(=O)N5CCCCC5)cc4)nc(N[C@H]4CC[C@H](N)CC4)nc32)cc1` the same measures were 240 nM and 535 nM.
On the same counts, the results for `CC(C)(C)c1ccc(-n2cnc3c(Nc4ccc(C(=O)N5CCCCC5)cc4)nc(N[C@H]4CC[C@H](N)CC4)nc32)cc1` are 3490 nM and 596 nM.
`N[C@H]1CC[C@H](Nc2nc(Nc3ccc(CN4CCOCC4)cc3)c3ncn(-c4ccccc4)c3n2)CC1`: in test [1], the IC50 is 703 nM. Further, in the test with Plasmodium falciparum [2], a half-maximal effect (EC50) was put at 174 nM.
On the same counts, the results for `CN1CCN(C(=O)c2cccc(Nc3nc(N[C@H]4CC[C@H](N)CC4)nc4c3ncn4-c3ccccc3)c2)CC1` are 6870 nM and 1300 nM.
As for `O=C(c1ccc(Nc2nc(NCCCN3CCOCC3)nc3c2ncn3-c2ccccc2)cc1)N1CCCCC1`, in test [1], the IC50 turned out to be 430 nM. In addition, the EC50 in the test with Plasmodium falciparum [2] amounted to 2990 nM.
For `O=C(c1ccc(Nc2nc(Nc3cnc4ccccc4c3)nc3c2ncn3-c2ccccc2)cc1)N1CCCCC1` the same measures were 3850 nM and 101 nM.
For `O=C(c1ccc(Nc2nc(N[C@H]3CC[C@H](O)CC3)nc3c2ncn3-c2cccc(F)c2)cc1)N1CCCCC1` the same measures were 150 nM and > 10000 nM.
On the same counts, the results for `O=C(c1ccc(Nc2nc(NCCc3c[nH]cn3)nc3c2ncn3-c2cccc(Cl)c2)cc1)N1CCCCC1` are 626 nM and 352 nM.
In the case of `C[C@@H]1CC[C@H]2[C@@H](C)C(=O)O[C@@H]3O[C@@]4(C)CC[C@@H]1[C@]32OO4` [ARTEMISININ], the EC50 with Plasmodium falciparum [3] is < 10 nM; in the test on Plasmodium falciparum [2], 28 nM.
Consider `CCN(CC)CCCC(C)Nc1ccnc2cc(Cl)ccc12` (configuration not stated) [CHLOROQUINE], for which, in the test with Plasmodium falciparum [3], the EC50 is < 10 nM.
